Results taken from paper PMC7217150, “Synthesis, Modification, and Biological Evaluation of a Library of Novel Water‐Soluble Thiopyridone‐Based Organometallic Complexes and Their Unexpected (Biological) Behavior” (Chemistry (Weinheim an Der Bergstrasse, Germany), 2020).
Where two headings read alike, the source gives them in different places.

Legend:
A549 [1] = experiment: MTT cytotoxicity assay, monolayer culture; type: cell-based, human; conditions: exposure time 96 h, means ± SDs
CH1/PA‐1 [2] = experiment: MTT cytotoxicity assay, monolayer culture; type: cell-based, human; conditions: CH1/PA‐1, MTT assay, exposure time 96 h, means ± SDs
SW480 [3] = experiment: MTT cytotoxicity assay, monolayer culture; type: cell-based, human
[4] = pH 7.2
Procedure: Stock solutions containing the desired complex in DMSO (5 mM) were diluted with phosphate buffer (pH 7.2) to a final concentration of […] compound in 1 % DMSO/20 mM buffer and directly analyzed by four different isocratic UHPLC runs (Δ=5 %). The lipophilicity parameters logkw and lipophilicity indices φ0 were calculated according to literature.7, 37

A549 [5] = conditions: A549 multicellular spheroids, 96 h drug exposure
Procedure: (§1) A549, CH1/PA‐1 and SW480 cells were grown in MEM supplemented with 10 % fetal calf serum (FCS; from Biowest), 1 mM sodium pyruvate, 4 mM L‐glutamine and 1 % v/v nonessential amino acids (from 100×solution) and L‐glutamine. HCT‐116 cells were maintained in McCoy's 5a medium supplemented with 10 % FCS and L‐glutamine. Adherent monolayer cultures were grown in 75 cm^2 flasks. For spheroid culture, A549, CH1/PA‐1 and HCT‐116 cells were harvested from culture flasks by trypsinization, resuspended in their respective supplemented medium and seeded in ultra‐low attachment round‐bottom 96‐well plates (Corning Costar) at a density of 500 viable cells per well. Plates were incubated for 96 h to allow spheroid formation prior to use for the tests. All cultures were incubated in a humidified incubator at 37 °C with 5 % CO2.
(§2) Cytotoxicity in multicellular spheroids was determined by the fluorimetric resazurin assay. […] After incubation for 96 h, 20 μL of a 440 μM resazurin sodium salt solution in PBS were added to each well, and the plates were incubated for further 16 h. Fluorescence was measured with a Synergy HT reader (BioTek) with an excitation wavelength of 530 nm and emission wavelength of 590 nm. For both assays, at least three independent experiments (or two in case of poor activity) were performed, each with triplicates per concentration level, and the 50 % inhibitory concentrations (IC50) relative to untreated controls were interpolated from concentration‐effect curves.

CH1/PA‐1 [6] = conditions: CH1/PA‐1 multicellular spheroids, 96 h drug exposure
Procedure: as §1, §2

HCT‐116 = HCT‐116 multicellular spheroids, 96 h drug exposure
Procedure: as §1, §2

CH1/PA‐1 [7] = experiment: Cell cycle distribution, flow cytometry with propidium iodide; type: cell-based, human; conditions: for Cell cycle distribution G1, % / Cell cycle distribution G2/M, % / Cell cycle distribution S, %: 24 h, mean ± SD; for Relative change in cell cycle distribution G1, % / Relative change in cell cycle distribution G2/M, % / Relative change in cell cycle distribution S, %: difference to untreated control; for decrease in G1 phase: CH1/PA‐1 cells
Outline: (§3)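 CH1/PA-1 and SW480 cells were allowed to attach for 24 h, then exposed continuously to compounds for 24 h at 37 °C. Nuclei were stained overnight at 4 °C with propidium iodide (50 μg mL^−1) in Triton/citrate buffer. 5×10^3 cells were analysed by flow cytometry, with G1/S/G2/M fractions fitted by the Watson Pragmatic model.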

SW480 [8] = experiment: as above; type: cell-based, human; conditions: for Cell cycle distribution G1, % / Cell cycle distribution G2/M, % / Cell cycle distribution S, %: 24 h, mean ± SD; for Relative change in cell cycle distribution G1, % / Relative change in cell cycle distribution G2/M, % / Relative change in cell cycle distribution S, %: difference to untreated control
Outline: as §3

SW480 cells = conditions: for Cellular accumulation: ICP‐MS, 2 h exposure, 50 μM
[9] = tested on: human cancer cell lines CH1/PA‐1, SW480, A549; conditions: tested cancer cell lines
Procedure: Cytotoxicity of the compounds in monolayer cultures was determined by the colorimetric MTT assay (MTT=3‐(4,5‐dimethyl‐2‐thiazolyl)‐2,5‐diphenyl‐2H‐tetrazolium bromide). 1×10^3 CH1/PA‐1, 2×10^3 SW480 and 3×10^3 A549 cells were seeded in 100 μL supplemented MEM per well into 96‐well flat‐bottom microculture plates. […] After 96 h, the drug‐containing medium was replaced with 100 μL of RPMI 1640/MTT mixture [6 parts of RPMI 1640 medium (supplemented with 10 % heat‐inactivated fetal bovine serum and 4 mM L‐glutamine), 1 part of MTT solution in phosphate‐buffered saline (5 mg mL^−1)]. After incubation for 4 h, the mixture was replaced with 150 μL DMSO per well to dissolve the formazan product formed by viable cells. Optical densities at 550 nm (and at a reference wavelength of 690 nm) were measured with a microplate reader (ELx808, Bio‐Tek).

[10] = SW480, MTT assay, exposure time 96 h, means ± SDs

## Cc1c([O-])c(=S)ccn1Cc1ccccc1.Cc1ccc(C(C)C)cc1.[Cl-].[Ru+2] [Compound 3 c, Chlorido[1‐benzyl‐2‐methyl‐3‐(oxo‐κO)‐pyridine‐4(1H)‐thionato‐κS](η^6‐p‐cymene)ruthenium(II)]
A549 [1]
  IC50: 1.3 ± 0.1 µM
CH1/PA‐1 [2]
  IC50: 1.04 ± 0.03 µM
SW480 [3]; [10]
  IC50: 3.1 ± 0.2 µM
SW480 [3]; SW480, as listed in Table 3
  IC50: 3.06 ± 0.2 µM
[4]
  φ0 (chromatographic lipophilicity index): 6.04
A549 [5]
  IC50: 287 ± 3 µM
CH1/PA‐1 [6]
  IC50: 242 ± 11 µM
HCT‐116
  IC50: 211 ± 28 µM
CH1/PA‐1 [7]; CH1/PA-1, 2.5 µM
  Cell cycle distribution G1, %: 30 ± 1%
  Cell cycle distribution G2/M, %: 23 ± 6%
  Cell cycle distribution S, %: 47 ± 8%
  Relative change in cell cycle distribution G1, %: -10%
  Relative change in cell cycle distribution G2/M, %: -1%
  Relative change in cell cycle distribution S, %: 11%
CH1/PA‐1 [7]; CH1/PA-1, 5 µM
  Cell cycle distribution G1, %: 27 ± 3%
  Cell cycle distribution G2/M, %: 30 ± 3%
  Cell cycle distribution S, %: 43 ± 3%
  Relative change in cell cycle distribution G1, %: -13%
  Relative change in cell cycle distribution G2/M, %: 6%
  Relative change in cell cycle distribution S, %: 7%
CH1/PA‐1 [7]; CH1/PA-1, 10 µM
  Cell cycle distribution G1, %: 24 ± 6%
  Cell cycle distribution G2/M, %: 30 ± 7%
  Cell cycle distribution S, %: 47 ± 4%
  Relative change in cell cycle distribution G1, %: -16%
  Relative change in cell cycle distribution G2/M, %: 6%
  Relative change in cell cycle distribution S, %: 11%
CH1/PA‐1 [7]; 2.5 μM
  decrease in G1 phase: 10%
CH1/PA‐1 [7]; 10 μM
  decrease in G1 phase: about 16%
SW480 [8]; SW480, 2.5 µM
  Cell cycle distribution G1, %: 45 ± 3%
  Cell cycle distribution G2/M, %: 17 ± 4%
  Cell cycle distribution S, %: 38 ± 6%
  Relative change in cell cycle distribution G1, %: -3%
  Relative change in cell cycle distribution G2/M, %: -2%
  Relative change in cell cycle distribution S, %: 5%
SW480 [8]; SW480, 5 µM
  Cell cycle distribution G1, %: 44 ± 2%
  Cell cycle distribution G2/M, %: 20 ± 3%
  Cell cycle distribution S, %: 36 ± 0%
  Relative change in cell cycle distribution G1, %: -4%
  Relative change in cell cycle distribution G2/M, %: 1%
  Relative change in cell cycle distribution S, %: 3%
SW480 [8]; SW480, 10 µM
  Cell cycle distribution G1, %: 48 ± 7%
  Cell cycle distribution G2/M, %: 21 ± 4%
  Cell cycle distribution S, %: 32 ± 7%
  Relative change in cell cycle distribution G1, %: 0%
  Relative change in cell cycle distribution G2/M, %: 2%
  Relative change in cell cycle distribution S, %: -1%
SW480 [8]; SW480 cells, at applicable concentrations
  decrease in G1 phase: < 9%
SW480 cells
  intracellular accumulation relative to 3 a, in words: seven times as high
  Cellular accumulation: 147±54 fg/cell
[9]
  IC50 values, in words: low micromolar range

## CC1=C2[O][Ir+]([Cl])[S]=C2C=CN1C.Cc1c(C)c(C)[c-](C)c1C [Compound 6 a, Chlorido[1,2‐dimethyl‐3‐oxo‐κO‐pyridine‐4(1H)‐thionato‐κS](η^5‐1,2,3,4,5‐pentamethylcyclopentadienyl)iridium(III)]
A549 [1]
  IC50: 63 ± 6 µM
CH1/PA‐1 [2]
  IC50: 7 ± 1.6 µM
SW480 [3]; [10]
  IC50: 4.2 ± 0.2 µM
SW480 [3]; SW480, as listed in Table 3
  IC50: 4.18 ± 0.19 µM
[4]
  φ0 (chromatographic lipophilicity index): 5.75
A549 [5]
  IC50: 270 ± 17 µM
CH1/PA‐1 [6]
  IC50: 131 ± 14 µM
HCT‐116
  IC50: 138 ± 6 µM
CH1/PA‐1 [7]; CH1/PA-1, 10 µM
  Cell cycle distribution G1, %: 29 ± 3%
  Cell cycle distribution G2/M, %: 26 ± 4%
  Cell cycle distribution S, %: 45 ± 8%
  Relative change in cell cycle distribution G1, %: -11%
  Relative change in cell cycle distribution G2/M, %: 2%
  Relative change in cell cycle distribution S, %: 9%
CH1/PA‐1 [7]; CH1/PA-1, 20 µM
  Cell cycle distribution G1, %: 33 ± 4%
  Cell cycle distribution G2/M, %: 26 ± 9%
  Cell cycle distribution S, %: 41 ± 10%
  Relative change in cell cycle distribution G1, %: -7%
  Relative change in cell cycle distribution G2/M, %: 2%
  Relative change in cell cycle distribution S, %: 5%
CH1/PA‐1 [7]; CH1/PA-1, 40 µM
  Cell cycle distribution G1, %: 28 ± 6%
  Cell cycle distribution G2/M, %: 26 ± 4%
  Cell cycle distribution S, %: 45 ± 5%
  Relative change in cell cycle distribution G1, %: -12%
  Relative change in cell cycle distribution G2/M, %: 2%
  Relative change in cell cycle distribution S, %: 9%
SW480 [8]; SW480, 2.5 µM
  Cell cycle distribution G1, %: 48 ± 2%
  Cell cycle distribution G2/M, %: 19 ± 3%
  Cell cycle distribution S, %: 32 ± 1%
  Relative change in cell cycle distribution G1, %: 0%
  Relative change in cell cycle distribution G2/M, %: 0%
  Relative change in cell cycle distribution S, %: -1%
SW480 [8]; SW480, 5 µM
  Cell cycle distribution G1, %: 41 ± 4%
  Cell cycle distribution G2/M, %: 26 ± 5%
  Cell cycle distribution S, %: 33 ± 9%
  Relative change in cell cycle distribution G1, %: -7%
  Relative change in cell cycle distribution G2/M, %: 7%
  Relative change in cell cycle distribution S, %: 0%
SW480 [8]; SW480, 10 µM
  Cell cycle distribution G1, %: 42 ± 4%
  Cell cycle distribution G2/M, %: 17 ± 3%
  Cell cycle distribution S, %: 42 ± 3%
  Relative change in cell cycle distribution G1, %: -6%
  Relative change in cell cycle distribution G2/M, %: -2%
  Relative change in cell cycle distribution S, %: 9%
SW480 cells
  cellular concentration relative to 3 a: about 47 times
  Cellular accumulation: 986±152 fg/cell
